The structures appear in SMILES notation. pIC50: −log10 of the molar value.

The first experiment has as its target T1, Mitogen-activated protein kinase kinase kinase 5 (Homo sapiens, UniProt Q99683).
T1 sequence (Q99683 whole entry): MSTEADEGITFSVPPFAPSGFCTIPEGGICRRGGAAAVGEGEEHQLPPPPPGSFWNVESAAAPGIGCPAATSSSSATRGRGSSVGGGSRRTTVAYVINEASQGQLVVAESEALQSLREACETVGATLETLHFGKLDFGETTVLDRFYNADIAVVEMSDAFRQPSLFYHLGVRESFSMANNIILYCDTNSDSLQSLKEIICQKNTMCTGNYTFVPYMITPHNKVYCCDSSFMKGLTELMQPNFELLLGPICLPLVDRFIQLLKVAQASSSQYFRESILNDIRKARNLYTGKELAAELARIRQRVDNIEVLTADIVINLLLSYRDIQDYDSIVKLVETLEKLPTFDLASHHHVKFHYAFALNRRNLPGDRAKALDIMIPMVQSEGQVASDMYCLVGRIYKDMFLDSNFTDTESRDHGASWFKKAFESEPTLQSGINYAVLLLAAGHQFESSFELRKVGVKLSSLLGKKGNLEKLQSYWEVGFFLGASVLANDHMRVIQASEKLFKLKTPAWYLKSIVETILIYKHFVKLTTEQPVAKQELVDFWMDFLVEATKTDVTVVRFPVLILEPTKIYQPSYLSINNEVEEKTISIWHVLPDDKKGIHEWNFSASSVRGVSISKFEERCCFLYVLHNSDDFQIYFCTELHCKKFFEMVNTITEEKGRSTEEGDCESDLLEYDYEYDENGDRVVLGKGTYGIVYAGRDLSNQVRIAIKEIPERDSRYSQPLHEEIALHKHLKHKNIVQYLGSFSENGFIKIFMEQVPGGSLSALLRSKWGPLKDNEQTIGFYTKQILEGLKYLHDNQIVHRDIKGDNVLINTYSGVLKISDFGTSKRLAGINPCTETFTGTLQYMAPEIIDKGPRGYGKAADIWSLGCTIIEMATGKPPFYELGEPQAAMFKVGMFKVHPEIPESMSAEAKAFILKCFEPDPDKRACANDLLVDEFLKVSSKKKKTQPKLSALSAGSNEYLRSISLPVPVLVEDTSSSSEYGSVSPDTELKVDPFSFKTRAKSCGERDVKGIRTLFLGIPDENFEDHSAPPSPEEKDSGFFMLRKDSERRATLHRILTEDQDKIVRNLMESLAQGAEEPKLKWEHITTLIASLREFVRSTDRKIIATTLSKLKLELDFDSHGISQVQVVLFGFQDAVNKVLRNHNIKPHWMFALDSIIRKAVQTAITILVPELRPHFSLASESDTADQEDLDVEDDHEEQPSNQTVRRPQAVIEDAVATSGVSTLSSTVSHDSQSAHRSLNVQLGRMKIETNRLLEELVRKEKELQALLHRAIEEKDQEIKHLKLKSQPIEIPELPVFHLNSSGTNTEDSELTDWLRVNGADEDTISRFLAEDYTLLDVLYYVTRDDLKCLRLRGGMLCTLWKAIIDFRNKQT
Briefly: Inhibition of ASK1 assessed as phosphorylated fluorescent peptide by mobility shift assay.
For `CC(C)(C(=O)O)c1ccc(C(=O)Nc2cn3cc(-c4ccsc4)ccc3n2)cc1`, the pIC50 is 7.72. For the compound `CCCN(CCC)c1[nH]cnc2ncnc1-2`, the negative logarithm of the IC50 (pIC50) was 4.59. `c1nc(N2CCCCC2)c2nc[nH]c2n1`: the pIC50 was 4.77. On the same count and under the same terms, then `COc1ccc(OC)c(Nc2nc(N)nc3[nH]cnc23)c1`, with 4.72; and `CC(C)(C)c1ccc(C(=O)Nc2cn3c(ccc4ccccc43)n2)cc1`, with 7.82. Consider `CSc1nc(N)nc2[nH]cnc12`, for which the negative-log IC50 (pIC50) was 4.88.

`CC(C)(C)c1ccc(C(=O)Nc2cn3cc(-n4ccnc4)ccc3n2)cc1`: the pIC50 is 7.85.

The target in the next experiment is T2, Mitogen-activated protein kinase kinase kinase 5 (Homo sapiens) (UniProt Q99683).
T2 sequence (whole entry): T1 sequence (Q99683 whole entry)
Briefly: Inhibition of ASK1 assessed as phosphorylated fluorescent peptide at 10 uM by mobility shift assay.
On to `Nc1nc(Nc2cccc3ccccc23)c2nc[nH]c2n1`, for which the inhibition was over 30%. The same measure, in the same setting: then `CS(=O)(=O)c1ccc(C(=O)Nc2nc3ccccc3[nH]2)cc1[N+](=O)[O-]`, with over 30%. As to `CN(C)c1ncnc2nc[nH]c12`, the inhibition is over 30%. With `Cc1c(C)n(CC(C)C)c2ncnc(N)c12`, the inhibition is over 30%.

Turning to `Nc1nc(OCc2ccccc2)c2nc[nH]c2n1`, the inhibition was over 30%. Still for that read-out and setting: in the case of `NC(=O)c1ccc(-n2cnc3ccccc32)cc1` it was over 30%. With `O=C(Nc1ccc(N2CCOCC2)cc1)c1n[nH]c2ccccc12`, the inhibition is over 30%. For `Nc1nc(SCCCCC(O)O)c2nc[nH]c2n1`, the inhibition was over 30%. For `CCCN(CCC)c1[nH]cnc2ncnc1-2`, the inhibition was over 50%. Same read-out and setting: then `O=C(Nc1nc2ccccc2[nH]1)c1ccc2ncsc2c1`, with over 30%; and `COc1cccc(C(=O)NN2CC(=O)C(c3nc4ccccc4c(=O)[nH]3)=C2N)c1`, with over 30%. Still for that read-out and setting: in the case of `c1nc(N2CCCCC2)c2nc[nH]c2n1` it was over 50%; in that of `Nc1nc(SCc2c(Cl)cccc2Cl)c2nc[nH]c2n1`, over 30%; in that of `COc1ccc(OC)c(Nc2nc(N)nc3[nH]cnc23)c1`, over 50%. Turning to `CNc1nc(N)c(C(=O)c2ccc(F)cc2)s1`, the inhibition was over 30%. As for `CCNc1nc(N)c(C(C)=O)s1`, the inhibition was over 30%. On to `Nc1nc(OCC2CCCCC2)c2nc[nH]c2n1`, for which the inhibition was over 50%. Consider `CSc1nc(N)nc2[nH]cnc12`, for which the inhibition is over 50%. On the same count and under the same terms, in the case of `Cc1c(C)n(C2CCCC2)c2nc[nH]c(=O)c12` it was over 30%; in that of `CNc1nc(-c2cccnc2)cn2ccnc12`, over 30%.

As to `Nc1nc(N)c2c(Cl)c(Br)ccc2n1`, the inhibition was over 30%.

The pIC50 is the IC50 on a negative log10 scale, so that one unit is a factor of ten. A word on the inhibition: it is the share of the control response that was lost under treatment.

The values above are taken from ChEMBL document CHEMBL1641590, “Identification of novel ASK1 inhibitors using virtual screening” (Bioorg Med Chem, 2011).
